Results as given in ChEMBL document CHEMBL4765295, “Synthesis, pharmacological profile and 2D-QSAR studies of curcumin-amino acid conjugates as potential drug candidates” (Eur J Med Chem, 2020).
Values joined by “and” are separate entries in the source; they are usually repeats but may differ in a detail not shown here. Equal entries are not always repeated. Each block holds one compound with its values, some of them ahead of it.

Assays:
Pseudomonas aeruginosa = test: Antibacterial activity against Pseudomonas aeruginosa ATCC 27853 incubated for 18 hrs by agar dilution assay; format: functional
[1] = Ulcerogenic activity in fasted albino mouse assessed as incidence of gastric ulceration at 10 mg/kg, po for 3 days (reference value: 0 %); format: toxicity, organism-based; conditions: in vivo, 72 h, time 3 day
Peritoneal macrophage [2] = test: Antiinflammatory activity in […] mouse Peritoneal macrophages assessed as inhibition of LPS-induced NO production at 10 uM preincubated for 1 hr followed by LPS stimulation measured after 24 hrs by Griess method relative to control (reference value: 0.0 %); format: functional; set-up: scale not given: the % may be the effect or the level left; conditions: time 25 hrs
Mus musculus [3] = test: Analgesic activity in albino mouse assessed as protection at 10 mg/kg, ip measured after 30 mins by hot plate test (reference value: 0 %); format: functional; conditions: 0.5 h
Splenocyte [4] = test: Immunomodulatory activity in Swiss albino mouse splenocytes assessed as cell viability at 10 uM by measuring inhibition of stimulation index incubated for 72 hrs in presence of mitogenic stimulus phytohaemagglutinin by MTT assay relative to indomethacin; format: functional; conditions: read-out: Activity
[5] = Ulcerogenic activity in fasted albino mouse assessed as average severity of ulcers in gastric mucosa at 10 mg/kg, po for 3 days (reference value: 0); format: toxicity, organism-based; conditions: in vivo, 72 h, time 3 day
Peritoneal macrophage [6] = test: Antiinflammatory activity in […] mouse Peritoneal macrophages assessed as reduction in LPS-induced NO production by measuring reduction in stimulation index at 10 uM preincubated for 1 hr followed by LPS stimulation measured after 24 hrs by Griess method (reference value: 27.31 +/- 2.56 uM); format: functional; conditions: time 25 hrs
Candida albicans = test: Antifungal activity against Candida albicans incubated for 18 to 24 hrs by CLSI method; format: functional; conditions: time 18-24 hrs
Rattus norvegicus [7] = test: Antiinflammatory activity in Wistar rat model of carrageenan-induced paw edema assessed as reduction in thickness of paw edema at 10 mg/kg, ip pretreated for 1 hr followed by carrageenan challenge and measured after 3 hrs (reference value: 1.79 +/-0.07 mm); format: functional; conditions: time 4 hrs
Mus musculus [8] = test: Analgesic activity in albino mouse assessed as forepaw licking/jumping latency time at 10 mg/kg, ip measured after 30 mins by hot plate test (reference value: 5.02 +/- 0.09 sec); format: functional; conditions: 0.5 h
Rattus norvegicus [9] = test: Anti-inflammatory activity in Wistar rat assessed as inhibition of carrageenan-induced paw edema at 10 mg/kg, ip pretreated for 1 hr followed by carrageenan challenge and measured after 1 hr relative to control (reference value: 0.00 +/-0.02 %); format: functional; conditions: time 2 hrs
Rattus norvegicus [10] = test: Anti-inflammatory activity in Wistar rat assessed as inhibition of carrageenan-induced paw edema at 10 mg/kg, ip pretreated for 1 hr followed by carrageenan challenge and measured after 3 hr relative to control (reference value: 0.00 +/-0.1 %); format: functional; conditions: time 4 hrs
Streptococcus pyogenes = test: Antibacterial activity against Streptococcus pyogenes ATCC 19615 incubated for 18 hrs by agar dilution method; format: functional
Rattus norvegicus [11] = test: Anti-inflammatory activity in Wistar rat assessed as inhibition of carrageenan-induced paw edema at 10 mg/kg, ip pretreated for 1 hr followed by carrageenan challenge and measured after 2 hr relative to control (reference value: 0.00 +/-0.03 %); format: functional; conditions: time 3 hrs
Mus musculus [12] = test: Analgesic activity in albino mouse assessed protection against acetic acid-induced abdominal writhing at 10 mg/kg, ip pretreated for 1 hr followed by acetic acid challenge and measured starting 5 mins post acetic acid challenge for 10 mins relative to control (reference value: 0 %); format: functional; conditions: time 75 min, 1.25 h
Rattus norvegicus [13] = test: Antiinflammatory activity in Wistar rat model of carrageenan-induced paw edema assessed as reduction in thickness of paw edema at 10 mg/kg, ip pretreated for 1 hr followed by carrageenan challenge and measured after 1 hr (reference value: 2.41 +/-0.05 mm); format: functional; conditions: time 1 hr after carrageenan
Mus musculus [14] = test: Analgesic activity in albino mouse assessed as protection at 10 mg/kg, ip measured after 90 mins by hot plate test (reference value: 0 %); format: functional; conditions: 1.5 h
Mus musculus [15] = test: Analgesic activity in albino mouse assessed protection against acetic acid-induced abdominal writhing at 10 mg/kg, ip pretreated for 1 hr followed by acetic acid challenge and measured starting 5 mins post acetic acid challenge for 10 mins relative to indomethacin; format: functional; conditions: time 75 min, 1.25 h
Salmonella typhimurium = test: Antibacterial activity against Salmonella typhimurium ATCC 19430 incubated for 18 hrs by agar dilution assay; format: functional, Salmonella enterica subsp. enterica serovar Typhimurium; conditions: Salmonella enterica
Rattus norvegicus [16] = test: Anti-inflammatory activity in Wistar rat assessed as inhibition of carrageenan-induced paw edema at 10 mg/kg, ip pretreated for 1 hr followed by carrageenan challenge and measured after 24 hr relative to control (reference value: 0.00 +/-0.3 %); format: functional; conditions: time 25 hrs
[17] = Ulcerogenic activity in fasted albino mouse assessed as ulcer index in gastric mucosa at 10 mg/kg, po for 3 days (reference value: 0); format: toxicity, organism-based; conditions: in vivo, 72 h, time 3 day
[18] = Toxicity in albino mouse assessed as induction of toxic symptoms at 50 to 100 mg/kg, ip measured after 24 hrs; format: organism-based; conditions: in vivo, dose 50-100 mg/kg
Staphylococcus aureus = test: Antibacterial activity against Staphylococcus aureus ATCC 25923 incubated for 18 hrs by agar dilution method; format: functional
Mus musculus [19] = test: Analgesic activity in albino mouse assessed as protection at 10 mg/kg, ip measured after 60 mins by hot plate test (reference value: 0 %); format: functional; conditions: 1 h
Mus musculus [20] = test: Analgesic activity in albino mouse assessed as forepaw licking/jumping latency time at 10 mg/kg, ip measured after 60 mins by hot plate test (reference value: 3.42 +/- 0.03 sec); format: functional; conditions: 1 h
Mus musculus [21] = test: Analgesic activity in albino mouse assessed as protection at 10 mg/kg, ip measured after 120 mins by hot plate test (reference value: 0 %); format: functional; conditions: 2 h
Mus musculus [22] = test: Analgesic activity in albino mouse assessed as forepaw licking/jumping latency time at 10 mg/kg, ip measured after 120 mins by hot plate test (reference value: 2.62 +/- 0.06 sec); format: functional; conditions: 2 h
Splenocyte [23] = test: Immunomodulatory activity in Swiss albino mouse splenocytes assessed as cell viability at 10 uM by measuring stimulation index incubated for 72 hrs in presence of mitogenic stimulus phytohaemagglutinin by MTT assay (reference value: 1.00 +/- 0.24); format: functional
Rattus norvegicus [24] = test: Anti-inflammatory activity in Wistar rat assessed as inhibition of carrageenan-induced paw edema at 10 mg/kg, ip pretreated for 1 hr followed by carrageenan challenge and measured after 4 hr relative to indomethacin; format: functional; conditions: time 5 hrs
Mus musculus [25] = test: Analgesic activity in albino mouse assessed as forepaw licking/jumping latency time at 10 mg/kg, ip measured after 90 mins by hot plate test (reference value: 2.72 +/- 0.01 sec); format: functional; conditions: 1.5 h
[26] = Ulcerogenic activity in fasted albino mouse assessed as average number of ulcers in gastric mucosa at 10 mg/kg, po for 3 days (reference value: 0); format: toxicity, organism-based; conditions: in vivo, 72 h, time 3 day
Mus musculus [27] = test: Analgesic activity in albino mouse assessed as protection at 10 mg/kg, ip measured after 120 mins by hot plate test relative to indomethacin; format: functional; conditions: 2 h
Rattus norvegicus [28] = test: Anti-inflammatory activity in Wistar rat assessed as inhibition of carrageenan-induced paw edema at 10 mg/kg, ip pretreated for 1 hr followed by carrageenan challenge and measured after 4 hr relative to control (reference value: 0.00 +/-0.4 %); format: functional; conditions: time 5 hrs
Rattus norvegicus [29] = test: Antiinflammatory activity in Wistar rat model of carrageenan-induced paw edema assessed as reduction in thickness of paw edema at 10 mg/kg, ip pretreated for 1 hr followed by carrageenan challenge and measured after 2 hrs (reference value: 2.06 +/-0.09 mm); format: functional; conditions: time 3 hrs
Mus musculus [30] = test: Analgesic activity in albino mouse assessed reduction in acetic acid-induced abdominal writhing by measuring writing reflex at 10 mg/kg, ip pretreated for 1 hr followed by acetic acid challenge and measured starting 5 mins post acetic acid challenge for 10 mins (reference value: 42.4 +/- 1.02); format: functional; conditions: time 75 min, 1.25 h
Rattus norvegicus [31] = test: Antiinflammatory activity in Wistar rat model of carrageenan-induced paw edema assessed as reduction in thickness of paw edema at 10 mg/kg, ip pretreated for 1 hr followed by carrageenan challenge and measured after 24 hrs (reference value: 0.83 +/-0.08 mm); format: functional; conditions: time 25 hrs
Rattus norvegicus [32] = test: Antiinflammatory activity in Wistar rat model of carrageenan-induced paw edema assessed as reduction in thickness of paw edema at 10 mg/kg, ip pretreated for 1 hr followed by carrageenan challenge and measured after 4 hrs (reference value: 1.40 +/-0.10 mm); format: functional; conditions: time 5 hrs

MIC (Pseudomonas aeruginosa): 0.25 µg/mL and 0.321 µM | MIC (Candida albicans): 0.5 µg/mL and 0.642 µM | MIC (Streptococcus pyogenes): 0.125 µg/mL and 0.161 µM | MIC (Salmonella typhimurium): 0.5 µg/mL and 0.642 µM | MIC (Staphylococcus aureus): 0.5 µg/mL and 0.642 µM
SMILES: COc1cc(/C=C/C(=O)/C=C(O)/C=C/c2ccc(OC(=O)C(C)NC(=O)OCc3ccccc3)c(OC)c2)ccc1OC(=O)C(C)NC(=O)OCc1ccccc1 (centres undefined)
Activity [1]: 3.33% | Activity (Peritoneal macrophage [2]): 45.41% | Activity (Mus musculus [3]): 24.7% | viability at 10 µM (Splenocyte [4]): 103% | Activity [5]: 0.67 | Activity (Peritoneal macrophage [6]): 14.91 µM | Activity (Rattus norvegicus [7]): 0.05 mm | Time (Mus musculus [8]): 6.26 s | inhibition in vivo at 10 mg/kg (Rattus norvegicus [9]): 72% | inhibition in vivo at 10 mg/kg (Rattus norvegicus [10]): 97% | inhibition in vivo at 10 mg/kg (Rattus norvegicus [11]): 87% | Activity (Mus musculus [12]): 53.4% | Activity (Rattus norvegicus [13]): 0.67 mm | Activity (Mus musculus [14]): 18.4% | Activity (Mus musculus [15]): 86.7% | inhibition in vivo at 10 mg/kg (Rattus norvegicus [16]): 100% | UI [17]: 4.67 | Activity [18]: Non-Toxic | Activity (Mus musculus [19]): 53.2% | Time (Mus musculus [20]): 5.24 s | Activity (Mus musculus [21]): 19.1% | Time (Mus musculus [22]): 3.12 s | Activity_index (Splenocyte [23]): 1.18 | inhibition in vivo at 10 mg/kg (Rattus norvegicus [24]): 115% | Time (Mus musculus [25]): 3.22 s | Activity [26]: 0.67 | Activity (Mus musculus [27]): 45.5% | inhibition in vivo at 10 mg/kg (Rattus norvegicus [28]): 100% | Activity (Rattus norvegicus [29]): 0.26 mm | Activity (Mus musculus [30]): 19.75 | Activity (Rattus norvegicus [31]): 0 mm | Activity (Rattus norvegicus [32]): 0 mm

MIC (Pseudomonas aeruginosa): 1 µg/mL and 1.2 µM | MIC (Candida albicans): 1 µg/mL and 1.2 µM | MIC (Streptococcus pyogenes): 2 µg/mL and 2.41 µM | MIC (Salmonella typhimurium): 2 µg/mL and 2.41 µM | MIC (Staphylococcus aureus): 2 µg/mL and 2.41 µM
SMILES: COc1cc(/C=C/C(=O)/C=C(O)/C=C/c2ccc(OC(=O)[C@H](CCSC)NC(=O)OC(C)(C)C)c(OC)c2)ccc1OC(=O)[C@H](CCSC)NC(=O)OC(C)(C)C
Activity [1]: 0% | Activity (Peritoneal macrophage [2]): 40.84% | Activity (Mus musculus [3]): 14.3% | viability at 10 µM (Splenocyte [4]): 88.5% | Activity [5]: 0 | Activity (Peritoneal macrophage [6]): 16.16 µM | Activity (Rattus norvegicus [7]): 1.01 mm | Time (Mus musculus [8]): 5.74 s | inhibition in vivo at 10 mg/kg (Rattus norvegicus [9]): 34% | inhibition in vivo at 10 mg/kg (Rattus norvegicus [10]): 44% | inhibition in vivo at 10 mg/kg (Rattus norvegicus [11]): 36% | Activity (Mus musculus [12]): 71% | Activity (Rattus norvegicus [13]): 1.59 mm | Activity (Mus musculus [14]): 56.6% | Activity (Mus musculus [15]): 115.3% | inhibition in vivo at 10 mg/kg (Rattus norvegicus [16]): 23% | UI [17]: 0 | Activity [18]: Non-Toxic | Activity (Mus musculus [19]): 70.8% | Time (Mus musculus [20]): 5.84 s | Activity (Mus musculus [21]): 47.3% | Time (Mus musculus [22]): 3.86 s | Activity_index (Splenocyte [23]): 1.37 | inhibition in vivo at 10 mg/kg (Rattus norvegicus [24]): 101% | Time (Mus musculus [25]): 4.26 s | Activity [26]: 0 | Activity (Mus musculus [27]): 112.6% | inhibition in vivo at 10 mg/kg (Rattus norvegicus [28]): 88% | Activity (Rattus norvegicus [29]): 1.31 mm | Activity (Mus musculus [30]): 12.3 | Activity (Rattus norvegicus [31]): 0.64 mm | Activity (Rattus norvegicus [32]): 0.17 mm
